Laboratory results reported in ChEMBL document CHEMBL1145939, “Analyses of activity for factor Xa inhibitors based on Monte Carlo simulations” (J Med Chem, 2003).

target: Coagulation factor X (Homo sapiens, UniProt P00742); experiment: Inhibition of human Coagulation factor X was determined
Sequence (P00742 41-179 limits assumed): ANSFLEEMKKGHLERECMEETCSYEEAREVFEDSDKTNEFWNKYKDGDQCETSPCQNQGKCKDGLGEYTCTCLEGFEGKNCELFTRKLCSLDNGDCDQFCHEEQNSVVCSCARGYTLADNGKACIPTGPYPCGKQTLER
Sequence (P00742 235-488 limits assumed): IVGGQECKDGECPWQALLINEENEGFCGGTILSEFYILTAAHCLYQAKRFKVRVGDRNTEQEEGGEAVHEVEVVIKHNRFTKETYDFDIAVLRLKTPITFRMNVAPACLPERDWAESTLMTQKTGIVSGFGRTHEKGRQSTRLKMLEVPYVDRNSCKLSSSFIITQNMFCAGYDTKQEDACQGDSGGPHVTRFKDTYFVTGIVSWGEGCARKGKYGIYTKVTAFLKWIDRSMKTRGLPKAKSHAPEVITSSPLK

Ki [nM]	Compound
1400	CC(=O)Cc1cccc(Oc2nc(Oc3cccc(C(=N)N)c3)c(F)c(C)c2F)c1
2100	Cc1c(F)c(Oc2cccc(CC(=O)C(C)C)c2)nc(Oc2cccc(C(=N)N)c2)c1F
810	CN1CC(C)(C)N=C1c1cccc(Oc2cc(C(=O)O)cc(Oc3cc(C(=N)N)ccc3O)n2)c1
650	Cc1c(F)c(Oc2cccc(C(=N)N)c2)nc(Oc2cccc(N3CCCCC3)c2)c1F
